This is an account of results in patent US20180355033A1, “ANTIBODIES, COMPOUNDS AND SCREENS FOR IDENTIFYING AND TREATING CACHEXIA OR PRE-CACHEXIA” (Dana-Farber Cancer Institute, Inc., priority 2015, published 2018).

Entries after “also recorded” stand apart in the source; their conditions may differ.

The target of assay [1] is T1, RAGE (Homo sapiens, UniProt Q15109). To be noted: cited from earlier work.
A further assay deals with HSkM. In words: Functional testing in Cachexia Assay (HSkM functional assay). The class given is cell-based, human. To be noted: FIG. 25. An excerpt: This implies that the modeled Ab epitope is likely a functional focused target for Ab therapy and that this is the basis for further small molecule therapeutic development for cancer cachexia and other RAGE mediated diseases.

For another assay, the system named is A-beta brain entry. To be noted: in vivo; cited from earlier work.
The target of a further assay is V domain of RAGE (Homo sapiens, UniProt Q15109). To be noted: cited from earlier work.
Chain of V domain of RAGE (Q15109 23-116 limits assumed): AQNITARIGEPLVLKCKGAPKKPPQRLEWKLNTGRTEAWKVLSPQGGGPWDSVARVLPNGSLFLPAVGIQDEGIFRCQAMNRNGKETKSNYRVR
The subject of another assay is RAGE-expressing cells. To be noted: RAGE-expressing cells in vitro and mouse brain in vivo; cited from earlier work.
In the next assay the test system is rat model of ICH. To be noted: cited from earlier work.
In assay [2] the test system is Primary human myoblast differentiated into terminal myotubes. In words: Cachexia induction by recombinant S100/HMGB1 ligands, myosin HC in-cell Western. To be noted: recombinant ligand applied each day for 3 days. The class given is cell-based. On the procedure: FIGS. 1-3 illustrate the effect of various proteins of the S100 family, as well as HMGB1, as cachexia inducers when compared with cachexia-inducing media. Primary human myoblast were plated and differentiated into terminal myotubes as previously described. Recombinant ligands were prepared at the same dose curve in Hanks Balance Salt Solution (buffer) and applied 1:2 v:v to fresh maintenance media each day for 3 days. Cells were assessed for myosin HC content by in-cell Western staining as previously described.

Assay [3] concerns the target T1, RAGE. In words: Direct immunoprecipitation with RAGE. The class given is binding. To be noted: direct immunoprecipitation experiments.

T1 sequence (Q15109 23-404): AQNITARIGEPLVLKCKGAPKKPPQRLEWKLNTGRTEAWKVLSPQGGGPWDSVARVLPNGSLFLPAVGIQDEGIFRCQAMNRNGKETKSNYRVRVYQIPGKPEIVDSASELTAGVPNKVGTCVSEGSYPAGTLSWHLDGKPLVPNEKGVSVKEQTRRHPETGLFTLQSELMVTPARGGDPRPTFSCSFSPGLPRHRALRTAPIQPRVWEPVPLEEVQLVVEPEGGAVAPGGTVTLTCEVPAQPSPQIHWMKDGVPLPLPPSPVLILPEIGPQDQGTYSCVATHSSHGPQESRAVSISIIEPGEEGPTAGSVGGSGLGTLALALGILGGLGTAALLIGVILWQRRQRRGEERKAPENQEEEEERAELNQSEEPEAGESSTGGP

Take `CCN(CC)CCOc1cccc(Nc2nc(C)cc(-c3ccc(OCCC4CCCCC4)cc3)n2)c1` [Compound 53, 4-(4-(2-cyclohexylethoxy)phenyl)-N-(3-(2-(diethylamino)ethoxy)-phenyl)-6-methylpyrimidin-2-amine]: the affinity to ligand result at RAGE [1] is on record as “highest affinity to ligand”.

Turning to `CCN(CC)CCOc1ccccc1Nc1nc(-c2ccc(Cl)cc2)cc(-c2ccc(Cl)cc2)n1` [Compound 60, 4,6-bis(4-chlorophenyl)-N-(2-(2-(diethylamino)ethoxy)phenyl)-pyrimidin-2-amine], at RAGE [1], the affinity to ligand entry is “highest affinity to ligand” and the in vitro activity entry is “best in vitro activity”.

As to `CCCCCC(=Cc1ccccc1)CN(CCc1c[nH]c2ccccc12)C(=O)c1ccc(Cl)c([N+](=O)[O-])c1` [FPS3], in the assay with HSkM, the “inhibition of cachexia phenotype” value is reported as “inhibits cachexia phenotype”.

As for `CCN(CC)CCOc1cccc(Nc2nc(-c3ccc(Cl)cc3)cc(-c3ccc(Cl)cc3)n2)c1` [Compound 59, 4,6-bis(4-chlorophenyl)-N-(3-(2-(diethylamino)ethoxy)phenyl)-pyrimidin-2-amine], at RAGE [1], the affinity to ligand result is “highest affinity to ligand” and the “inhibition (not further specified)” value is “most significant inhibition”. In addition, the “A-beta brain entry inhibition” value in the assay on A-beta brain entry was “most potent A-beta brain entry inhibition”.

As for `O=C(c1ccc(Cl)cc1)N(Cc1ccccc1)C1CCCCC1` [FPS-ZM1], at V domain of RAGE, the “blocking of Aβ binding to the V domain of RAGE” value is on record as “blocked A13 binding to the V domain of RAGE”. In addition, in the assay with RAGE-expressing cells, the “inhibition of Aβ40- and Aβ42-induced cellular stress” value was “inhibited A1340- and A1342-induced cellular stress”. Further, the “BBB damage, brain edema, motor dysfunction, nerve fiber injury” value with rat model of ICH (rat ICH model, FPS-ZM1 administration) is “significant improvements of BBB damage, brain edema, motor dysfunction, and nerve fiber injury”. For the same molecule, the “FeCl2-induced RAGE and nuclear factor κB p65 upregulation” value in the assay with rat model of ICH (rat, in vivo) is “reversed FeCl2-induced RAGE and nuclear factor κB p65 upregulation”.

For the molecule “S100A8/A9: recombinant S100A8/A9 (Calprotectin)”, the “induction of the cachectic phenotype (myosin HC content)” value (“induction of the cachectic phenotype” for short) in assay [2] is listed as “capable of inducing the cachexia phenotype”. Besides, the “direct binding to RAGE” value with RAGE [3] is recorded as “directly bind to RAGE”.

B1: HMGB1: high mobility group box 1, RAGE ligand (protein, UniProt P09429 1-215, looked up)
High mobility group protein B1: MGKGDPKKPRGKMSSYAFFVQTCREEHKKKHPDASVNFSEFSKKCSERWKTMSAKEKGKFEDMAKADKARYEREMKTYIPPKGETKKKFKDPNAPKRPPSAFFLFCSEYRPKIKGEHPGLSIGDVAKKLGEMWNNTAADDKQPYEKKAAKLKEKYEKDIAAYRAKGKPDAAKKGVVKAEKSKKKKEEEEDEEDEEDEEEEEDEEDEDEEEDDDDE
For the molecule B1, the “induction of the cachectic phenotype” value in assay [2] was “do not induce precachexia and/or cachexia; also recorded: not cachexogenic in muscle; also recorded: cannot; also recorded: does not induce the cachectic phenotype”.

B2: A8: recombinant RAGE ligand of the S100 family (protein, UniProt P05109 1-93, looked up)
Protein S100-A8: MLTELEKALNSIIDVYHKYSLIKGNFHAVYRDDLKKLLETECPQYIRKKGADVWFKELDINTDGAVNFQEFLILVIKMGVAAHKKSHEESHKE
In the case of B2, the “induction of the cachectic phenotype” value in assay [2] is listed as “inducers of the cachectic phenotype”.

B3: A9: recombinant RAGE ligand of the S100 family (protein, UniProt P06702 1-114, looked up)
Protein S100-A9: MTCKMSQLERNIETIINTFHQYSVKLGHPDTLNQGEFKELVRKDLQNFLKKENKNEKVIEHIMEDLDTNADKQLSFEEFIMLMARLTWASHEKMHEGDEGPGHHHKPGLGEGTP
In the case of B3, the “induction of the cachectic phenotype” value in assay [2] was “inducers of the cachectic phenotype”.

B4: S100 A7: recombinant RAGE ligand of the S100 family (protein, UniProt P31151 2-101, looked up)
Protein S100-A7: SNTQAERSIIGMIDMFHKYTRRDDKIEKPSLLTMMKENFPNFLSACDKKGTNYLADVFEKKDKNEDKKIDFSEFLSLLGDIATDYHKQSHGAAPCSGGSQ
B4: the “induction of the cachectic phenotype” value is given as “inducers of the cachectic phenotype” in assay [2] and “capable of inducing the cachexia phenotype” in assay [2] (listed as S100A7). Further, the “direct binding to RAGE” value with RAGE [3] is reported as “directly bind to RAGE”.

B5: S100B: recombinant S100 family RAGE ligand (protein, UniProt P04271 2-92, looked up)
Protein S100-B: SELEKAMVALIDVFHQYSGREGDKHKLKKSELKELINNELSHFLEEIKEQEVVDKVMETLDNDGDGECDFQEFMAFVAMVTTACHEFFEHE
Take B5: the “induction of the cachectic phenotype” value in assay [2] is “little or no activity in inducing cachexia; also recorded: do not induce precachexia and/or cachexia”.
